Measurements taken from patent US20160176867A1, “MODIFIED BET-PROTEIN-INHIBITING DIHYDROQUINOXALINONES AND DIHYDROPYRIDOPYRAZINONES” (BAYER PHARMA AKTIENGESELLSCHAFT, priority 2013, published 2016).

Legend:
[1] = biological target: T1, BRD4 bromo domain 2 [BRD4(2)] (Homo sapiens, UniProt O60885); assay: BRD4/acetylated peptide H4 binding assay (TR-FRET), BRD4 bromo domain 2; settings: inhibition of BRD4(2)/Ac-H4 peptide interaction
T1 construct: N-terminally His6-tagged BRD4(2) (amino acids 357-445); made in house; host or cells: E. coli
Source text: (§1) Protein-Protein Interaction Assay: BRD4/Acetylated Peptide H4 Binding Assay
To assess the BRD4(2) binding strength of the substances described in this application, the ability thereof to inhibit the interaction between BRD4(2) and acetylated histone H4 in a dose-dependent manner was quantified.
(§2) For this purpose, a time-resolved fluorescence resonance energy transfer (TR-FRET) assay was used, which measures the binding between N-terminally His6-tagged BRD4(2) (amino acids 357-445) and a synthetic acetylated histone H4 (Ac-H4) peptide with sequence SGRGK(Ac)GGK(Ac)GLGK(Ac)GGAK(Ac)RHRKVLRDNGSGSK-biotin. The recombinant BRD4(2) protein produced in-house according to Filippakopoulos et al., Nature, 2010, 468:1119-1123 and Cell, 2012, 149:214-231, was expressed in E. coli and purified by means of (Ni-NTA) affinity and (Sephadex G-75) size exclusion chromatography. The Ac-H4 peptide can be purchased, for example, from Biosyntan (Berlin, Germany).
(§3) In the assay, typically 11 different concentrations of each substance (0.1 nM, 0.33 nM, 1.1 nM, 3.8 nM, 13 nM, 44 nM, 0.15 μM, 0.51 μM, 1.7 μM, 5.9 μM and 20 μM) were analysed as duplicates on the same microtitre plate. For this purpose, 100-fold concentrated solutions in DMSO were prepared by serial dilutions (1:3.4) of a 2 mM stock solution into a clear, 384-well microtitre plate (Greiner Bio-One, Frickenhausen, Germany). From this, 50 nl were transferred into a black test plate (Greiner Bio-One, Frickenhausen, Germany). The test was started by the addition of 2 μl of a 2.5-fold concentrated BRD4(2) solution (final concentration typically 100 nM in the 5 μl of reaction volume) in aqueous assay buffer [50 mM HEPES pH 7.5, 50 mM sodium chloride (NaCl); 50 mM potassium fluoride (KF); 0.25 mM CHAPS and 0.05% serum albumin (BSA)] to the substances in the test plate. This was followed by a 10-minute incubation step at 22° C. for the pre-equilibration of putative complexes between BRD4(2) and the substances. Subsequently, 3 μl of a 1.67-fold concentrated solution (in assay buffer) consisting of Ac-H4 peptide (83.5 nM) and TR-FRET detection reagents [83.5 nM anti-6His-XL665 (Cisbio Bioassays, Codolet, France) and 12.52 nM streptavidin-Eu), (Perkin Elmer, #W1024)] in assay buffer were added.
(§4) The mixture was then incubated in the dark at 22° C. for one hour and then at 4° C. for at least 3 hours and for no longer than overnight. The formation of BRD4(2)/Ac-H4 complexes was determined by the measurement of the resonance energy transfer from the streptavidin-Eu chelate to the anti-6His-XL665 antibody present in the reaction. For this purpose, the fluorescence emission was measured at 620 nm and 665 nm after excitation at 330-350 nm in a TR-FRET measuring instrument, for example a Rubystar or Pherastar (both from BMG Lab Technologies, Offenburg, Germany) or a Viewlux (Perkin-Elmer). The ratio of the emissions at 665 nm and at 622 nm was taken as an indicator of the amount of BRD4(2)/Ac-H4 complexes formed.
(§5) The data (ratios) obtained were normalized, with 0% inhibition corresponding to the mean from the measurements for a set of controls (typically 32 data points) in which all the reagents were present. In these, in place of test substances, 50 nl of DMSO (100%) were used. Inhibition of 100% corresponded to the mean from the measurements for a set of controls (typically 32 data points) in which all the reagents except BRD4(2) were present. The IC50 was determined by regression analysis based on a 4-parameter equation (minimum, maximum, IC50, Hill; Y=max+(min−max)/(1+(X/IC50)Hill)).

[2] = biological target: T2, BRD4 bromo domain 1 [BRD4(1)] (Homo sapiens, UniProt O60885); assay: BRD4/acetylated peptide H4 binding assay (TR-FRET), BRD4 bromo domain 1; settings: inhibition of BRD4(1)/Ac-H4 peptide interaction
T2 construct: N-terminally His6-tagged BRD4(1) (amino acids 67-152); made in house; host or cells: E. coli
Source text: as §1
To assess the BRD4(1) binding strength of the substances described in this application, the ability thereof to inhibit the interaction between BRD4(1) and acetylated histone H4 in a dose-dependent manner was quantified.
as §2, with “BRD4(1)” for “BRD4(2)”, “67-152)” for “357-445)”, “GRGK(Ac)GGK(Ac)GLGK(Ac)GGAK(Ac)RHGSGSK-biotin.” for “SGRGK(Ac)GGK(Ac)GLGK(Ac)GGAK(Ac)RHRKVLRDNGSGSK-biotin.”
as §3, with “concentrated BRD4(1)” for “concentrated BRD4(2)”, “typically 10” for “typically 100”, “chloride (NaCl),” for “chloride (NaCl); 50 mM potassium fluoride (KF);”, “between BRD4(1)” for “between BRD4(2)”, “substances.” for “substances. Subsequently, 3 μl of a 1.67-fold concentrated solution (in assay buffer) consisting of Ac-H4 peptide (83.5 nM) and TR-FRET detection reagents [83.5 nM anti-6His-XL665 (Cisbio Bioassays, Codolet, France) and 12.52 nM streptavidin-Eu), (Perkin Elmer, #W1024)] in assay buffer were added.”
as §4, with “BRD4(1)/Ac-H4” for “BRD4(2)/Ac-H4”, “cryptate” for “chelate”
as §5, with “BRD4(1)” for “BRD4(2)”

SMILES	IC50 [1] [µM]	IC50 [2] [µM]
COCCN1c2nc(Nc3cccc(C(=O)NC4CCN(C)CC4)c3)ccc2N(C)C(=O)C1C (racemic) [Example 98, 3-{[4-(2-methoxyethyl)-1,3-dimethyl-2-oxo-1,2,3,4-tetrahydropyrido[2,3-b]pyrazin-6-yl]amino}-N-(1-methylpiperidin-4-yl)benzamide]	0.216	0.531
COCCN1c2nc(Nc3cccc(S(=O)(=O)N4CCOCC4)c3)ccc2N(C)C(=O)[C@@H]1C (stereo in doubt) [Example 112, (3S)-4-(2-methoxyethyl)-1,3-dimethyl-6-{[3-(morpholin-4-ylsulphonyl)phenyl]amino}-3,4-dihydropyrido[2,3-b]pyrazin-2(1H)-one]	0.057	5.3
C[C@@H]1C(=O)N(C)c2ccc(Nc3cccc(C(=O)NC4CCN(C)CC4)c3)nc2N1c1ccc(F)cc1 (stereo in doubt) [Example 115, 3-{[(3R)-4-(4-fluorophenyl)-1,3-dimethyl-2-oxo-1,2,3,4-tetrahydropyrido[2,3-b]pyrazin-6-yl]amino}-N-(1-methylpiperidin-4-yl)benzamide]	0.706	0.379
C[C@H]1C(=O)N(C)c2ccc(Nc3cccc(C(=O)NC4CCN(C)CC4)c3)nc2N1c1ccc(F)cc1 (stereo in doubt) [Example 116, 3-{[(3S)-4-(4-fluorophenyl)-1,3-dimethyl-2-oxo-1,2,3,4-tetrahydropyrido[2,3-b]pyrazin-6-yl]amino}-N-(1-methylpiperidin-4-yl)benzamide]	> 40	6.75
COCCN1c2nc(Nc3cccc(C(=O)N4CCN(C)CC4)c3)ccc2N(C)C(=O)[C@H]1C (stereo in doubt) [Example 117, (3R)-4-(2-methoxyethyl)-1,3-dimethyl-6-({3-[(4-methylpiperazin-1-yl)carbonyl]phenyl}amino)-3,4-dihydropyrido[2,3-b]pyrazin-2(1H)-one]	0.434	0.489
COCCN1c2nc(Nc3cccc(C(=O)N4CCN(C)CC4)c3)ccc2N(C)C(=O)[C@@H]1C (stereo in doubt) [Example 118, (3S)-4-(2-methoxyethyl)-1,3-dimethyl-6-({3-[(4-methylpiperazin-1-yl)carbonyl]phenyl}amino)-3,4-dihydropyrido[2,3-b]pyrazin-2(1H)-one]	> 40	18.2
COCCN1c2nc(Nc3cccc(C(=O)NC4CCN(C)CC4)c3)ccc2N(C)C(=O)[C@H]1C (stereo in doubt) [Example 119, 3-{[(3R)-4-(2-methoxyethyl)-1,3-dimethyl-2-oxo-1,2,3,4-tetrahydropyrido[2,3-b]pyrazin-6-yl]amino}-N-(1-methylpiperidin-4-yl)benzamide]	0.428	0.742
COCCN1c2nc(Nc3cccc(C(=O)NC4CCN(C)CC4)c3)ccc2N(C)C(=O)[C@@H]1C (stereo in doubt) [Example 120, 3-{[(3S)-4-(2-methoxyethyl)-1,3-dimethyl-2-oxo-1,2,3,4-tetrahydropyrido[2,3-b]pyrazin-6-yl]amino}-N-(1-methylpiperidin-4-yl)benzamide]	4.46	6.87
COc1ccc(C(=O)N[C@H]2CC[C@H](N3CCN(CC4CC4)CC3)CC2)cc1Nc1ccc2c(n1)N(C1CCOCC1)[C@H](C)C(=O)N2C [Example 18, N-{trans-4-[4-(Cyclopropylmethyl)piperazin-1-yl]cyclohexyl}-3-{[(3R)-1,3-dimethyl-2-oxo-4-(tetrahydro-2H-pyran-4-yl)-1,2,3,4-tetrahydropyrido[2,3-b]pyrazin-6-yl]amino}-4-methoxybenzamide]	–	0.149
C[C@@H]1C(=O)N(C)c2ccc(Nc3cccc(S(=O)(=O)N4CC(F)(F)C4)c3)nc2N1C1CCOCC1 [Example 31, (3R)-6-({3-[(3,3-Difluoroazetidin-1-yl)sulphonyl]phenyl}amino)-1,3-dimethyl-4-(tetrahydro-2H-pyran-4-yl)-3,4-dihydropyrido[2,3-b]pyrazin-2(1H)-one]	–	0.04
CC(C)NS(=O)(=O)c1cccc(Nc2ccc3c(n2)N(C2CCOCC2)[C@H](C)C(=O)N3C)c1 [Example 42, 3-{[(3R)-1,3-dimethyl-2-oxo-4-(tetrahydro-2H-pyran-4-yl)-1,2,3,4-tetrahydropyrido[2,3-b]pyrazin-6-yl]amino}-N-isopropylbenzene-sulphonamide]	–	0.036
COc1ccc(C(=O)N[C@H]2CC[C@H](N3CCN(CC4CC4)CC3)CC2)cc1Nc1ccc2c(n1)N(C1CCOCC1)[C@H](C)C(=O)N2C [Example 87, N-{trans-4-[4-(cyclo-propylmethyl)piperazin-1-yl]cyclohexyl}-3-{[(3R)-1,3-dimethyl-2-oxo-4-(tetrahydro-2H-pyran-4-yl)-1,2,3,4-tetrahydropyrido[2,3-b]pyrazin-6-yl]amino}-4-methoxybenzamide]	–	0.351
